# Measured values as given in patent publication US7629379B2, “Substituted phosphonate fluorescent sensors and use thereof” (Queen Mary & Westfield College, priority 2003, dated 2009).
# Where a name gives a salt, the structure may show the parent alone.
# How the values were obtained:
# [1] = tested on: Zn^+2 in fibrosarcoma cells; assay: Imaging of Zn^+2 in fibrosarcoma cells; type: cell-based; conditions: added to any of the wells with phosphonate and zinc
melting point [°C],Compound,uptake into cells (Fibrosarcoma cells),further results
291,"O=P(O)(O)COc1ccc2c(c1)[nH]c1ccccc12 [Example 9, 2-carbazolyloxymethyl phosphonic acid]",–,–
285 to 288,"O=P(O)(O)COc1cccc2cccnc12 (as salt: salt) [Example 2, 8-quinolyloxy methylphosphonic acid]",–,–
–,O=P([O-])([O-])Cn1c2ccccc2c2ccccc21.[Na+].[Na+] [di sodium N-carbazolylmethylphosphonate],taken up in the cytoplasm within the fibrosarcoma cells,penetration of brain cell types and regions (Slices of rat brain): went into the endothelial and neuronal cells
–,"c1ccc(CN(CCN(Cc2ccccn2)Cc2ccccn2)Cc2ccccn2)nc1 [TPEN, N,N,N′,N′-tetrakis(2-pyridylmethyl)ethylenediamine]",–,effect of excess chelator on the cell fluorescence [1]: very significant quenching of the fluorescence
–,"Cc1cc(=O)oc2cc(OCP(=O)(O)O)ccc12 [di-sodium salt of Example 5, 4-methylcoumarin 7-oxymethylphosphonic acid]",taken up in the cytoplasm within the fibrosarcoma cells,–

Compound,melting point [°C],uptake into cells (Fibrosarcoma cells),further results
"CCOP(=O)(COc1ccc2c(c1)[nH]c1ccccc12)OCC [Example 8, diethyl-2-carbazolyloxymethylphosphonate]",159,taken up in the cytoplasm within the fibrosarcoma cells,–
